These results are taken from the supplement of paper PMC11208160.

The data set in a line: recombinant barcode read abundance after kanamycin selection (control-corrected) (log10(CPM+1)); higher = more efficient recombination; sequences stand for … in AGTGCAGAGAAAATCGGCCAGTTTTCTCTGCCTGCAGTCCGCATGCCGT…AGATTTATGCAGCGGACTGCCTTTCTCCCAAAGTGATAAACCGGACAGTATCATGGACCGGTTTTCCCGGTAATCCGTATTTGCAAGGTTGGTTTCACT; site = the 11-nt target. The method, boiled down: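 In E. coli, a pooled library matched targets to IS621 bridge RNA target-binding loops and was introduced alongside a donor plasmid. Cells went onto chloramphenicol/ampicillin/kanamycin with 0.1 mM IPTG or onto chloramphenicol/ampicillin LB agar as control, in duplicate. Recombination efficiency, from recombinant-junction barcodes as counts per million, is averaged and control-corrected. It is reported as log10(CPM+1).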
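Further: IS621 recombinase and bridge RNA in Escherichia coli cells.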

In the case of “TAGAGCTCTTGGGTTCTAACCTGTTGCTG (site TAGTGCTCTGA)”, the “recombinant barcode read abundance (log10)” value amounted to 0.0075.

Consider “TAGATAACTTGGGTTCTAACCTGTTGCTG (site ACCCATTCTAC)”, for which the “recombinant barcode read abundance (log10)” value amounted to 0.

On to “TAGATAACTTGGGTTCTAACCTGTTGCTG (site TAGATAACTCA)”, for which the “recombinant barcode read abundance (log10)” value stood at 1.02.

Regarding “TAGCACTCTTGGGTTCTAACCTGTTGCAG (site AAGCACCCTCT)”, the “recombinant barcode read abundance (log10)” value worked out at 0.0429.

As to “TAGCACTCTTGGGTTCTAACCTGTTGCAG (site TAGCACTCTCT)”, the “recombinant barcode read abundance (log10)” value worked out at 2.08.

Consider “TAGCATACTTGGGTTCTAACCTGTTGCCC (site TAGCATACTAG)”, for which the “recombinant barcode read abundance (log10)” value came to 0.329.

As to “TAGCATACTTGGGTTCTAACCTGTTGCCC (site TAGCATACTCG)”, the “recombinant barcode read abundance (log10)” value came to 0.266.

Consider “TAGCATACTTGGGTTCTAACCTGTTGCCC (site TAGCATACTGG)”, for which the “recombinant barcode read abundance (log10)” value was determined as 0.941.

Take “TAGCATACTTGGGTTCTAACCTGTTGCCC (site TAGCATACTTG)”: the “recombinant barcode read abundance (log10)” value stood at 0.187.

As to “TAGCATGCTTGGGTTCTAACCTGTTGCAG (site TAGCATGCTAT)”, the “recombinant barcode read abundance (log10)” value was 0.0261.

Turning to “TAGCATGCTTGGGTTCTAACCTGTTGCAG (site TAGCATGCTCT)”, the “recombinant barcode read abundance (log10)” value was 1.44.

For “TAGCATGCTTGGGTTCTAACCTGTTGCAG (site TAGCATGCTGT)”, the “recombinant barcode read abundance (log10)” value turned out to be 0.0603.

For “TAGCATGCTTGGGTTCTAACCTGTTGCAG (site TAGCATGCTTT)”, the “recombinant barcode read abundance (log10)” value turned out to be 0.017.

Take “TAGCATGCTTGGGTTCTAACCTGTTGCAT (site TAGCATGCTAT)”: the “recombinant barcode read abundance (log10)” value is 0.434.

Regarding “TAGCATGCTTGGGTTCTAACCTGTTGCAT (site TAGCATGCTCT)”, the “recombinant barcode read abundance (log10)” value came out at 0.204.

As for “TAGCATGCTTGGGTTCTAACCTGTTGCAT (site TAGCATGCTGT)”, the “recombinant barcode read abundance (log10)” value was 0.228.

On to “TAGCATGCTTGGGTTCTAACCTGTTGCAT (site TAGCATGCTTT)”, for which the “recombinant barcode read abundance (log10)” value stood at 0.065.

Take “TAGCCATCTTGGGTTCTAACCTGTTGCTC (site TAGACATCTGA)”: the “recombinant barcode read abundance (log10)” value was determined as 0.0329.

On to “TAGCCATCTTGGGTTCTAACCTGTTGCTC (site TAGCCATCTGA)”, for which the “recombinant barcode read abundance (log10)” value amounted to 0.508.

Consider “TAGCCATCTTGGGTTCTAACCTGTTGCTC (site TAGGCATCTGA)”, for which the “recombinant barcode read abundance (log10)” value is 0.404.

As to “TAGCCATCTTGGGTTCTAACCTGTTGCTC (site TAGTCATCTGA)”, the “recombinant barcode read abundance (log10)” value is 0.

Consider “TAGCCTACTTGGGTTCTAACCTGTTGCGG (site TAGCCTACTAC)”, for which the “recombinant barcode read abundance (log10)” value is 0.0228.

Take “TAGCCTACTTGGGTTCTAACCTGTTGCGG (site TAGCCTACTCC)”: the “recombinant barcode read abundance (log10)” value was determined as 1.41.

Turning to “TAGCCTACTTGGGTTCTAACCTGTTGCGG (site TAGCCTACTGC)”, the “recombinant barcode read abundance (log10)” value worked out at 0.0519.

Regarding “TAGCCTACTTGGGTTCTAACCTGTTGCGG (site TAGCCTACTTC)”, the “recombinant barcode read abundance (log10)” value is 0.00783.

“TAGCCTGCTTGGGTTCTAACCTGTTGCCT (site TAGACTGCTAG)”: the “recombinant barcode read abundance (log10)” value was found to be 0.0305.

On to “TAGCCTGCTTGGGTTCTAACCTGTTGCCT (site TAGCCTGCTAG)”, for which the “recombinant barcode read abundance (log10)” value was 1.35.

Consider “TAGCCTGCTTGGGTTCTAACCTGTTGCCT (site TAGGCTGCTAG)”, for which the “recombinant barcode read abundance (log10)” value was 0.026.

For “TAGCCTGCTTGGGTTCTAACCTGTTGCCT (site TAGTCTGCTAG)”, the “recombinant barcode read abundance (log10)” value was 0.177.

“TAGCGCACTTGGGTTCTAACCTGTTGCGG (site TAGCACACTCC)”: the “recombinant barcode read abundance (log10)” value was 0.28.

Consider “TAGCGCACTTGGGTTCTAACCTGTTGCGG (site TAGCCCACTCC)”, for which the “recombinant barcode read abundance (log10)” value came to 0.076.

As to “TAGCGCACTTGGGTTCTAACCTGTTGCGG (site TAGCGCACTCC)”, the “recombinant barcode read abundance (log10)” value was 1.33.

With “TAGCGCACTTGGGTTCTAACCTGTTGCGG (site TAGCTCACTCC)”, the “recombinant barcode read abundance (log10)” value turned out to be 0.13.

“TAGCGGCCTTGGGTTCTAACCTGTTGCCT (site TAACGGCCTAG)”: the “recombinant barcode read abundance (log10)” value came to 0.651.

In the case of “TAGCGGCCTTGGGTTCTAACCTGTTGCCT (site TACCGGCCTAG)”, the “recombinant barcode read abundance (log10)” value was 0.0223.

As to “TAGCGGCCTTGGGTTCTAACCTGTTGCCT (site TAGCGGCCTAG)”, the “recombinant barcode read abundance (log10)” value was determined as 0.428.

On to “TAGCGGCCTTGGGTTCTAACCTGTTGCCT (site TATCGGCCTAG)”, for which the “recombinant barcode read abundance (log10)” value is 0.0926.

As for “TAGCGTACTTGGGTTCTAACCTGTTGCGT (site TAGCGTACTAC)”, the “recombinant barcode read abundance (log10)” value was determined as 0.805.

As to “TAGCGTACTTGGGTTCTAACCTGTTGCGT (site TAGCGTACTCC)”, the “recombinant barcode read abundance (log10)” value came to 0.0572.

For the sequence “TAGCTCCCTTGGGTTCTAACCTGTTGCCC (site TAGCTCCCTAG)”, the “recombinant barcode read abundance (log10)” value is 0.279.

In the case of “TAGCTCCCTTGGGTTCTAACCTGTTGCCC (site TAGCTCCCTCG)”, the “recombinant barcode read abundance (log10)” value was 0.115.

Regarding “TAGCTCCCTTGGGTTCTAACCTGTTGCCC (site TAGCTCCCTGG)”, the “recombinant barcode read abundance (log10)” value was 0.872.

As for “TAGCTCCCTTGGGTTCTAACCTGTTGCCC (site TAGCTCCCTTG)”, the “recombinant barcode read abundance (log10)” value worked out at 0.0924.

Turning to “TAGCTGACTTGGGTTCTAACCTGTTGCCC (site GTTTGACCTCC)”, the “recombinant barcode read abundance (log10)” value was 0.136.

Turning to “TAGCTGACTTGGGTTCTAACCTGTTGCCC (site TAGCTGACTGG)”, the “recombinant barcode read abundance (log10)” value came out at 0.932.

Take “TAGCTGTCTTGGGTTCTAACCTGTTGCGT (site AATCTGTCTAC)”: the “recombinant barcode read abundance (log10)” value came out at 0.106.

Regarding “TAGCTGTCTTGGGTTCTAACCTGTTGCGT (site TAGCTGTCTAC)”, the “recombinant barcode read abundance (log10)” value came to 2.29.

In the case of “TAGGATACTTGGGTTCTAACCTGTTGCAC (site TAGGATACTAT)”, the “recombinant barcode read abundance (log10)” value is 0.34.

For “TAGGATACTTGGGTTCTAACCTGTTGCAC (site TAGGATACTCT)”, the “recombinant barcode read abundance (log10)” value was 0.729.

Regarding “TAGGATACTTGGGTTCTAACCTGTTGCAC (site TAGGATACTGT)”, the “recombinant barcode read abundance (log10)” value is 2.08.

Regarding “TAGGATACTTGGGTTCTAACCTGTTGCAC (site TAGGATACTTT)”, the “recombinant barcode read abundance (log10)” value came out at 0.107.

With “TAGGATACTTGGGTTCTAACCTGTTGCAG (site TAGGATACTAT)”, the “recombinant barcode read abundance (log10)” value came out at 0.29.

Take “TAGGATACTTGGGTTCTAACCTGTTGCAG (site TAGGATACTCT)”: the “recombinant barcode read abundance (log10)” value was determined as 2.5.

As for “TAGGATACTTGGGTTCTAACCTGTTGCAG (site TAGGATACTGT)”, the “recombinant barcode read abundance (log10)” value worked out at 0.106.

For “TAGGATACTTGGGTTCTAACCTGTTGCAG (site TAGGATACTTT)”, the “recombinant barcode read abundance (log10)” value was 0.351.

For the sequence “TAGGATACTTGGGTTCTAACCTGTTGCAT (site TAGGATACTAT)”, the “recombinant barcode read abundance (log10)” value is 1.55.

As for “TAGGATACTTGGGTTCTAACCTGTTGCAT (site TAGGATACTCT)”, the “recombinant barcode read abundance (log10)” value was 0.583.

Turning to “TAGGATACTTGGGTTCTAACCTGTTGCAT (site TAGGATACTGT)”, the “recombinant barcode read abundance (log10)” value worked out at 0.0987.

Consider “TAGGATACTTGGGTTCTAACCTGTTGCAT (site TAGGATACTTT)”, for which the “recombinant barcode read abundance (log10)” value is 0.0945.

For the sequence “TAGGATACTTGGGTTCTAACCTGTTGCGT (site TAGGAAACTAC)”, the “recombinant barcode read abundance (log10)” value worked out at 0.314.

Turning to “TAGGATACTTGGGTTCTAACCTGTTGCGT (site TAGGACACTAC)”, the “recombinant barcode read abundance (log10)” value came to 0.928.

In the case of “TAGGATACTTGGGTTCTAACCTGTTGCGT (site TAGGAGACTAC)”, the “recombinant barcode read abundance (log10)” value was 0.266.

In the case of “TAGGATACTTGGGTTCTAACCTGTTGCGT (site TAGGATACTAC)”, the “recombinant barcode read abundance (log10)” value came out at 3.02.

For the sequence “TAGGATCCTTGGGTTCTAACCTGTTGCGA (site ACCCGCTCTAG)”, the “recombinant barcode read abundance (log10)” value is 0.205.

For “TAGGATCCTTGGGTTCTAACCTGTTGCGA (site TAGGATCCTTC)”, the “recombinant barcode read abundance (log10)” value was determined as 2.71.

As for “TAGGATTCTTGGGTTCTAACCTGTTGCCT (site TAATATTCTAG)”, the “recombinant barcode read abundance (log10)” value came out at 0.0335.

As for “TAGGATTCTTGGGTTCTAACCTGTTGCCT (site TAGGATTCTAG)”, the “recombinant barcode read abundance (log10)” value is 1.88.

Turning to “TAGGCGCCTTGGGTTCTAACCTGTTGCCT (site TAGGCGCCTAA)”, the “recombinant barcode read abundance (log10)” value worked out at 0.173.

“TAGGCGCCTTGGGTTCTAACCTGTTGCCT (site TAGGCGCCTAC)”: the “recombinant barcode read abundance (log10)” value is 0.0375.

Consider “TAGGCGCCTTGGGTTCTAACCTGTTGCCT (site TAGGCGCCTAG)”, for which the “recombinant barcode read abundance (log10)” value turned out to be 0.252.

“TAGGCGCCTTGGGTTCTAACCTGTTGCCT (site TAGGCGCCTAT)”: the “recombinant barcode read abundance (log10)” value is 0.235.

Consider “TAGGCTACTTGGGTTCTAACCTGTTGCAA (site TAGGCTACTAT)”, for which the “recombinant barcode read abundance (log10)” value worked out at 0.144.

Turning to “TAGGCTACTTGGGTTCTAACCTGTTGCAA (site TAGGCTACTCT)”, the “recombinant barcode read abundance (log10)” value was 0.0112.

With “TAGGCTACTTGGGTTCTAACCTGTTGCAA (site TAGGCTACTGT)”, the “recombinant barcode read abundance (log10)” value came to 1.49.

As to “TAGGCTACTTGGGTTCTAACCTGTTGCAA (site TAGGCTACTTT)”, the “recombinant barcode read abundance (log10)” value came to 1.33.

In the case of “TAGGCTACTTGGGTTCTAACCTGTTGCAC (site TAGGCTACTAT)”, the “recombinant barcode read abundance (log10)” value was found to be 0.147.

Take “TAGGCTACTTGGGTTCTAACCTGTTGCAC (site TAGGCTACTCT)”: the “recombinant barcode read abundance (log10)” value is 0.131.
